In PubChem BioAssay (NCI):
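Results reflect a 48-hour exposure of cells in 96-well plates to compound at five concentrations. TGI denotes the concentration required for complete inhibition of growth.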

Assays:
Test in all cases: NCI tumour cell line growth inhibition, 48 h
[1] = tested on: KM20L2 colon
[2] = tested on: LXFL 529 NSCLC
[3] = tested on: BT-549 breast
[4] = tested on: HS 578T breast
[5] = tested on: MDA-MB-231 breast
[6] = tested on: PC-3 prostate
[7] = tested on: T-47D breast
[8] = tested on: P388 leukemia
[9] = tested on: SN12K1 renal

| SMILES | TGI [2] [µM] | TGI [5] [µM] | TGI [6] [µM] | further results |
| --- | --- | --- | --- | --- |
| Cc1c(N(Cc2ccccc2)Cc2ccccc2)nc(S(C)(=O)=O)nc1S(C)(=O)=O | 3.45 |  |  | TGI [1]: 3.28 µM |
| Nc1nc2c(c(-c3ccc(F)cc3)n1)COC/C2=C\c1ccc(F)cc1 |  | > 100 | > 100 | TGI [3]: > 100 µM; TGI [4]: > 100 µM |
| COc1cc(O)c2c(=O)c(O)c(-c3ccc(O)c(O)c3)oc2c1 |  | 95.8 | > 100 | TGI [7]: > 100 µM |
| Cn1c(=O)c(C#N)c(O)c2cc3ccccc3nc21 | > 100 |  |  |  |
| Nc1cc(O)c2cc(N=Nc3ccc(N=Nc4ccc(N=Nc5ccc6cc(S(=O)(=O)O)cc(S(=O)(=O)O)c6c5)c5ccccc45)c4cc(S(=O)(=O)O)ccc34)c(S(=O)(=O)O)cc2c1 |  |  |  | TGI [8]: > 100 µM; TGI [9]: > 100 µM |
